Experimental data as given in patent US8877819B2, “Methods for treating heat stress and related compositions” (Georgetown University, priority 2008, dated 2014).

Target: T1, angiotensin converting enzyme (ACE) (Rattus norvegicus, UniProt P47820)
T1 construct: from tissue; host or cells: rat serum
T1 sequence (P47820 36-1313): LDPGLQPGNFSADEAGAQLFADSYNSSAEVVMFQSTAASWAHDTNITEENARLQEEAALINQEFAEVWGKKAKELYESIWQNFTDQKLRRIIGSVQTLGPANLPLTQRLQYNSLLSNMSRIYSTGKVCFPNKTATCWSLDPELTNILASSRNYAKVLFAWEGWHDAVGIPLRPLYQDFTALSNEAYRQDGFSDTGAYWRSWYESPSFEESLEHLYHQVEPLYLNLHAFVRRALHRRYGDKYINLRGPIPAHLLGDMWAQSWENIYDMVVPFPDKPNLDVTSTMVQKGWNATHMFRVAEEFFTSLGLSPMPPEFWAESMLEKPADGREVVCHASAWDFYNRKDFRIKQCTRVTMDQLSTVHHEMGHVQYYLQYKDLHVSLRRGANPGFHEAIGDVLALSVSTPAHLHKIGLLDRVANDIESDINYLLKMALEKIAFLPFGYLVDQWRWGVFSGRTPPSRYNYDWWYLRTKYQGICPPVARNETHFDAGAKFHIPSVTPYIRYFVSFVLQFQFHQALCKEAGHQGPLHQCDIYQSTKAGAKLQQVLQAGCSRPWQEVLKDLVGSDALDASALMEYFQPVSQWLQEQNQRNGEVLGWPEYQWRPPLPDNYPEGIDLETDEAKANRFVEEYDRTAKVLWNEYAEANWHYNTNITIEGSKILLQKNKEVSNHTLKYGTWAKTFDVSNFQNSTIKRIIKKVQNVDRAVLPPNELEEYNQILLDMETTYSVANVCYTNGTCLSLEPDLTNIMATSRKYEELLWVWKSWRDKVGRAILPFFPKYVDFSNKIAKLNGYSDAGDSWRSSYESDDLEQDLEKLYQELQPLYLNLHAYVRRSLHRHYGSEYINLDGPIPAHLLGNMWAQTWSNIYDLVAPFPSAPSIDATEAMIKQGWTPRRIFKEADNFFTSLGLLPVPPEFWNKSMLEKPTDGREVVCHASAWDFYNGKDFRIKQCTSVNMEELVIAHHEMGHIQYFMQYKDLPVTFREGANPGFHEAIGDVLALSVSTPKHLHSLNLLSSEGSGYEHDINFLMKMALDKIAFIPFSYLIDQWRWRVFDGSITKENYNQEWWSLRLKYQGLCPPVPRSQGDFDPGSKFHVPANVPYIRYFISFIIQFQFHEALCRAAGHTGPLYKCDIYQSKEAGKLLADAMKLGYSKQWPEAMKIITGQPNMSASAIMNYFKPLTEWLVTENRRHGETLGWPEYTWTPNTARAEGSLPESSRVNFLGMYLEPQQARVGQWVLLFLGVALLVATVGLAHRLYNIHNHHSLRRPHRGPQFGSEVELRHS
Assay: Serum Angiotensin Converting Enzyme (ACE) activity
Format: in vivo, Zucker Fatty Rats
Description: Serum ACE activity was measured by a commercial kit (Sigma Co. Ltd, St. Louis, Mo.). This spectrophotometric method utilizes the synthetic tripeptide substrate N-[3-(2-furyl)acryloyl]-phenylalanylglcylglcine (FAPGG). FAPGG is hydrolyzed by ACE to furylacryloylphenylalanine (FAP) and glycylglycine. Hydrolysis of FAPGG results in a decreased absorbency at 340 nm. Serum ACE activity was determined by comparing the sample reaction rate to that obtained with an appropriate ACE calibrator.

For `CC1=C(/C=C/C(C)=C/C=C/C(C)=C/C=C/C=C(C)/C=C/C=C(C)/C=C/C2=C(C)C(=O)[C@@H](O)CC2(C)C)C(C)(C)C[C@H](O)C1=O` [Asta, astaxanthin], which ACE activity (Experiment 2, Hi Asta, astaxanthin 25 mg/kg in feed) is on record?
The ACE activity was 24.2 ± 1.3 units.

What about the ACE activity (Experiment 2, Lo Asta, astaxanthin 5 mg/kg in feed) of the same molecule?
Its ACE activity is 27.1 ± 1.4 units.
